Measured values published in the NIST ThermoML archive (doi:10.1016/j.tca.2013.06.022).
Numbers after ± are expanded uncertainties.

Details: for Normal melting temperature: Crystal

Row | Structure (SMILES) | Normal melting temperature (visual observation) [°C] | Glass transition temperature (DTA) [°C] | Normal melting temperature (DTA) [°C]
1 | C=CC[n+]1cccc(C)c1.[Cl-] [1-allyl-3-methylpyridinium chloride] | 108.00 ± 5 | 27.50 ± 5 | –
2 | CCCC[n+]1cccc(C)c1.[Cl-] [1-butyl-3-methylpyridinium chloride] | 97.00 ± 5 | 35.00 ± 5 | 93.00 ± 5
3 | CCCCCCCCCC[n+]1cccc(C)c1.[Cl-] [1-decyl-3-methylpyridinium chloride] | 64.00 ± 5 | – | 55.00 ± 5
4 | CC[n+]1cccc(C)c1.[Br-] [1-ethyl-3-methylpyridinium bromide] | 163.00 ± 5 | – | 146.00 ± 5
5 | CC[n+]1cccc(C)c1.[Cl-] [1-ethyl-3-methylpyridinium chloride] | 130.00 ± 5 | 29.00 ± 5 | –
6 | CCCCCCC[n+]1cccc(C)c1.[Cl-] [1-heptyl-3-methylpyridinium chloride] | 72.00 ± 5 | 16.50 ± 5 | –
7 | CCCCCC[n+]1cccc(C)c1.[Cl-] [1-hexyl-3-methylpyridinium chloride] | 77.00 ± 5 | – | 62.00 ± 5
8 | CCCCCCCCC[n+]1cccc(C)c1.[Cl-] [1-nonyl-3-methylpyridinium chloride] | 64.00 ± 5 | – | –
9 | CCCCCCCC[n+]1cccc(C)c1.[Cl-] [1-octyl-3-methylpyridinium chloride] | 74.00 ± 5 | – | 69.00 ± 5
10 | CCCCC[n+]1cccc(C)c1.[Cl-] [1-pentyl-3-methylpyridinium chloride] | 92.00 ± 5 | 21.50 ± 5 | –
11 | CCC[n+]1cccc(C)c1.[Cl-] [1-propyl-3-methylpyridinium chloride] | 92.00 ± 5 | 18.50 ± 5 | –
